Reference: US8951541B2, “Method of modifying dissolution rate of particles by addition of hydrophobic nanoparticles” (3M Innovative Properties Company, priority 2010, dated 2015)

Experiment: Rate of dissolution of acetaminophen and acetaminophen/nanoparticle mixtures in DIW by UV/Vis absorbance at 243 nm
Assay type: physicochemical
Details: 0.013 g in 1000 mL DIW
Procedure: The following procedure (similar to USP30-NF 25, Mar. 17, 2008) was used to measure the rate and intensity of dissolution of acetaminophen and acetaminophen/nanoparticle mixtures in Millipore H2O (i.e., DIW).
Three samples of acetaminophen were weighed out. One sample was used as a control sample (Comparative K). A pre-determined amount of surface modified nanoparticles were added to each of the other samples. Sample 14 was combined with 1 weight percent nanoparticles (0.013 g) and sample 15 was combined with 0.5 weight percent nanoparticles (0.0065 g). Each blended sample was prepared by adding the nanoparticles to the acetaminophen. […]
Each blended sample was then measured separately by adding to different glass beakers, each of which contained 1000 mL of DIW and a magnetic stir-bar. […] 0.013 g of the blended samples were measured out and added to the stirred DIW.
While the acetaminophen was being dissolved in the DIW, 1.5 mL samples of the DIW and acetaminophen mixtures were removed every two minutes by pipette. The UV/Vis spectra of the samples were immediately measured using a UV/Vis spectrophotometer (obtained from PerkinElmer, Waltham, Mass., under the trade designation “LAMBDA 35 UV/VIS SPECTROPHOTOMETER), specifically focusing on the 243 nm absorbance.
This was determined to be the final measured value needed for subsequent experiments. […]

CC(=O)Nc1ccc(O)cc1 [Comparative K, acetaminophen]
absorbance intensity at 243 nm (final measured value) (stirred, plateau value): approximately 0.86
Slope (slope between first two time points: change in absorbance at 243 nm/change in time, in seconds): 0.0029
